Data: patent publication US10576062B2, “Carbamoyloxymethyl triazole cyclohexyl acids as LPA antagonists” (Bristol-Myers Squibb Company, priority 2016, dated 2020)

The compounds below were run against T1, human LPA1 (Homo sapiens, UniProt Q92633) (assay: LPA1 functional antagonist assay (LPA-induced calcium flux)). Details: CHO cells overexpressing human LPA1; inhibition of calcium flux induced by 10 nM LPA; read-out: hLPA1 IC50.
T1 construct: expressed in transfected cells; host or cells: Chinese hamster ovary (CHO) cells
Type: cell-based
How it was run: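 CHO cells overexpressing human LPA1, loaded with calcium dye 30 min at 37° C, were preincubated 20 min at room temperature with compound (0.08 nM–5 μM, 0.5% DMSO) in HBSS/20 mM HEPES/0.1% fatty acid-free BSA.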

T1 sequence (Q92633 whole entry): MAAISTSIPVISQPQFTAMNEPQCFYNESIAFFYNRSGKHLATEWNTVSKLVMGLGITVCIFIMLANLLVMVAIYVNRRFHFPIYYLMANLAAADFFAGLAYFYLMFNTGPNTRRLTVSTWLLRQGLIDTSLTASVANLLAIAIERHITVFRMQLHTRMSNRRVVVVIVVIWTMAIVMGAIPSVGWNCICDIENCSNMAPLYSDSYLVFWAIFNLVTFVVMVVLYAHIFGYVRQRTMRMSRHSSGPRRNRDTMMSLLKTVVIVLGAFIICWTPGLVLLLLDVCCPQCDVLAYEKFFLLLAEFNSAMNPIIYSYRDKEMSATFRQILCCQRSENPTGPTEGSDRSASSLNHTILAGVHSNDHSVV

Row | SMILES | IC50 [nM]
1 | Cc1nc(-c2nnn(C)c2COC(=O)N(C)CC2(C)CC2)ccc1O[C@H]1CCC[C@H](C(=O)O)C1 [Example 263, (1S,3S)-3-((2-methyl-6-(1-methyl-5-(((methyl((1-methylcyclopropyl)methyl)carbamoyl)oxy)methyl)-1H-1,2,3-triazol-4-yl)pyridin-3-yl)oxy)cyclohexane-1-carboxylic acid] | 76
2 | Cc1nc(-c2nnn(C)c2COC(=O)N(C)CC(C)(C)C)ccc1O[C@H]1CCC[C@H](C(=O)O)C1 [Example 264, (1S,3S)-3-((2-methyl-6-(1-methyl-5-(((methyl(neopentyl)carbamoyl)oxy)methyl)-1H-1,2,3-triazol-4-yl)pyridin-3-yl)oxy)cyclohexane-1-carboxylic acid] | 76
3 | CN(CC1CCC1)C(=O)OCc1c(-c2ccc(O[C@H]3CCC[C@H](C(=O)O)C3)c(CO)n2)nnn1C [Example 265, (1S,3 S)-3-((6-(5-((((cyclobutylmethyl)(methyl)carbamoyl)oxy)methyl)-1-methyl-1H-1,2,3-triazol-4-yl)-2-(hydroxymethyl)pyridin-3-yl)oxy)cyclohexane-1-carboxylic Acid] | 68
4 | CN(CC1CCC1)C(=O)OCc1c(-c2ccc(O[C@H]3CCC[C@H](C(=O)O)C3)c(CF)n2)nnn1C [Example 266, (1S,3 S)-3-((6-(5-((((cyclobutylmethyl)(methyl)carbamoyl)oxy)methyl)-1-methyl-1H-1,2,3-triazol-4-yl)-2-(fluoromethyl)pyridin-3-yl)oxy)cyclohexane-1-carboxylic Acid] | 27
5 | COCc1nc(-c2nnn(C)c2COC(=O)N(C)CC2CCC2)ccc1O[C@H]1CCC[C@H](C(=O)O)C1 [Example 268, (1S,3 S)-3-((6-(5-((((cyclobutylmethyl)(methyl)carbamoyl)oxy)methyl)-1-methyl-1H-1,2,3-triazol-4-yl)-2-(methoxymethyl)pyridin-3-yl)oxy)cyclohexane-1-carboxylic Acid] | 103
6 | CN(CC1CCC1)C(=O)OCc1c(-c2ccc(O[C@H]3CCC[C@H](C(=O)O)C3)c(C(F)(F)F)n2)nnn1C [Example 269, (1S,3 S)-3-((6-(5-((((cyclobutylmethyl)(methyl)carbamoyl)oxy)methyl)-1-methyl-1H-1,2,3-triazol-4-yl)-2-(trifluoromethyl)pyridin-3-yl)oxy)cyclohexane-1-carboxylic Acid] | 10
7 | CCCN(C)C(=O)OCc1c(-c2ccc(O[C@H]3CCC[C@H](C(=O)O)C3)c(C#N)n2)nnn1C [Example 270, (1S,3S)-3-((2-cyano-6-(1-methyl-5-(((methyl(propyl)carbamoyl)oxy)methyl)-1H-1,2,3-triazol-4-yl)pyridin-3-yl)oxy)cyclohexane-1-carboxylic acid] | 11
8 | CN(CC1CCC1)C(=O)OCc1c(-c2ccc(O[C@H]3CCC[C@H](C(=O)O)C3)c(C(C)(C)O)n2)nnn1C [Example 271, (1S,3 S)-3-((6-(5-((((cyclobutylmethyl)(methyl)carbamoyl)oxy)methyl)-1-methyl-1H-1,2,3-triazol-4-yl)-2-(2-hydroxypropan-2-yl)pyridin-3-yl)oxy)cyclohexane-1-carboxylic Acid] | 225
9 | CCCN(C)C(=O)OCc1c(-c2ccc(O[C@H]3CCC[C@H](C(=O)O)C3)c(OC)n2)nnn1C [Example 272, (1S,3 S)-3-((2-Methoxy-6-(1-methyl-5-(((methyl(propyl)carbamoyl)oxy)methyl)-1H-1,2,3-triazol-4-yl)pyridin-3-yl)oxy)cyclohexane-1-carboxylic Acid] | 4
10 | CN(CC1CC1)C(=O)OCc1c(-c2ccc(O[C@H]3CCC[C@H](C(=O)O)C3)c(C(F)(F)F)n2)nnn1C [Example 273, (1S,3S)-3-((6-(5-((((cyclopropylmethyl)(methyl)carbamoyl)oxy)methyl)-1-methyl-1H-1,2,3-triazol-4-yl)-2-(trifluoromethyl)pyridin-3-yl)oxy)cyclohexane-1-carboxylic acid] | 7
11 | CCCN(C)C(=O)OCc1c(-c2ccc(O[C@H]3CCC[C@H](C(=O)O)C3)c(C(F)(F)F)n2)nnn1C [Example 274, (1S,3S)-3-((6-(1-methyl-5-(((methyl(propyl)carbamoyl)oxy)methyl)-1H-1,2,3-triazol-4-yl)-2-(trifluoromethyl)pyridin-3-yl)oxy)cyclohexane-1-carboxylic acid] | 28
12 | CCCCN(C)C(=O)OCc1c(-c2ccc(O[C@H]3CCC[C@H](C(=O)O)C3)c(C(F)(F)F)n2)nnn1C [Example 275, (1S,3S)-3-((6-(5-(((butyl(methyl)carbamoyl)oxy)methyl)-1-methyl-1H-1,2,3-triazol-4-yl)-2-(trifluoromethyl)pyridin-3-yl)oxy)cyclohexane-1-carboxylic acid] | 5.6
13 | CN(C(=O)OCc1c(-c2ccc(O[C@H]3CCC[C@H](C(=O)O)C3)c(C(F)(F)F)n2)nnn1C)C1CCCC1 [Example 276, (1S,3S)-3-((6-(5-(((cyclopentyl(methyl)carbamoyl)oxy)methyl)-1-methyl-1H-1,2,3-triazol-4-yl)-2-(trifluoromethyl)pyridin-3-yl)oxy)cyclohexane-1-carboxylic acid] | 15
14 | CCCN(C)C(=O)OCc1c(-c2ccc(O[C@H]3CCC[C@H](C(=O)O)C3)c(C(F)F)n2)nnn1C [Example 277, (1S,3S)-3-((2-(difluoromethyl)-6-(1-methyl-5-(((methyl(propyl)carbamoyl)oxy)methyl)-1H-1,2,3-triazol-4-yl)pyridin-3-yl)oxy)cyclohexane-1-carboxylic acid] | 35
15 | CCCCN(C)C(=O)OCc1c(-c2ccc(O[C@H]3CCC[C@H](C(=O)O)C3)c(C(F)F)n2)nnn1C [Example 278, (1S,3S)-3-((6-(5-(((butyl(methyl)carbamoyl)oxy)methyl)-1-methyl-1H-1,2,3-triazol-4-yl)-2-(difluoromethyl)pyridin-3-yl)oxy)cyclohexane-1-carboxylic acid] | 22

More lines, now with the values ahead:

Row | IC50 [nM] | SMILES
16 | 21 | CN(CC1CC1)C(=O)OCc1c(-c2ccc(O[C@H]3CCC[C@H](C(=O)O)C3)c(C(F)F)n2)nnn1C [Example 279, (1S,3S)-3-((6-(5-((((cyclopropylmethyl)(methyl)carbamoyl)oxy)methyl)-1-methyl-1H-1,2,3-triazol-4-yl)-2-(difluoromethyl)pyridin-3-yl)oxy)cyclohexane-1-carboxylic acid]
17 | 22 | CN(C(=O)OCc1c(-c2ccc(O[C@H]3CCC[C@H](C(=O)O)C3)c(C(F)F)n2)nnn1C)C1CCC1 [Example 280, (1S,3S)-3-((6-(5-(((cyclobutyl(methyl)carbamoyl)oxy)methyl)-1-methyl-1H-1,2,3-triazol-4-yl)-2-(difluoromethyl)pyridin-3-yl)oxy)cyclohexane-1-carboxylic acid]
18 | 35 | CN(C(=O)OCc1c(-c2ccc(O[C@H]3CCC[C@H](C(=O)O)C3)c(C(F)F)n2)nnn1C)C1CCCC1 [Example 281, (1S,3S)-3-((6-(5-(((cyclopentyl(methyl)carbamoyl)oxy)methyl)-1-methyl-1H-1,2,3-triazol-4-yl)-2-(difluoromethyl)pyridin-3-yl)oxy)cyclohexane-1-carboxylic acid]
19 | 19 | CN(Cc1ccccc1)C(=O)OCc1c(-c2ccc(O[C@H]3CCC[C@H](C(=O)O)C3)c(C(F)F)n2)nnn1C [Example 282, (1S,3S)-3-((6-(5-(((benzyl(methyl)carbamoyl)oxy)methyl)-1-methyl-1H-1,2,3-triazol-4-yl)-2-(difluoromethyl)pyridin-3-yl)oxy)cyclohexane-1-carboxylic acid]
20 | 475 | CCCN(C)C(=O)OCc1c(-c2ccc(O[C@H]3CCC[C@H](C(=O)O)C3)c(COC)n2)nnn1C [Example 283, (1S,3S)-3-((2-(methoxymethyl)-6-(1-methyl-5-(((methyl(propyl)carbamoyl)oxy)methyl)-1H-1,2,3-triazol-4-yl)pyridin-3-yl)oxy)cyclohexane-1-carboxylic acid]
21 | 48 | CCCCN(C)C(=O)OCc1c(-c2ccc(O[C@H]3CCC[C@H](C(=O)O)C3)c(COC)n2)nnn1C [Example 284]
22 | 1010 | COCc1nc(-c2nnn(C)c2COC(=O)N(C)CC2CC2)ccc1O[C@H]1CCC[C@H](C(=O)O)C1 [Example 285, (1S,3S)-3-((6-(5-((((cyclopropylmethyl)(methyl)carbamoyl)oxy)methyl)-1-methyl-1H-1,2,3-triazol-4-yl)-2-(methoxymethyl)pyridin-3-yl)oxy)cyclohexane-1-carboxylic acid]
23 | 92 | COCc1nc(-c2nnn(C)c2COC(=O)N(C)C2CCC2)ccc1O[C@H]1CCC[C@H](C(=O)O)C1 [Example 286, (1S,3S)-3-((6-(5-(((cyclobutyl(methyl)carbamoyl)oxy)methyl)-1-methyl-1H-1,2,3-triazol-4-yl)-2-(methoxymethyl)pyridin-3-yl)oxy)cyclohexane-1-carboxylic acid]
24 | 118 | COCc1nc(-c2nnn(C)c2COC(=O)N(C)C2CCCC2)ccc1O[C@H]1CCC[C@H](C(=O)O)C1 [Example 287, (1S,3S)-3-((6-(5-(((cyclopentyl(methyl)carbamoyl)oxy)methyl)-1-methyl-1H-1,2,3-triazol-4-yl)-2-(methoxymethyl)pyridin-3-yl)oxy)cyclohexane-1-carboxylic acid]
25 | 29 | [2H]C([2H])([2H])N(CCC)C(=O)OCc1c(-c2ccc(O[C@H]3CCC[C@H](C(=O)O)C3)c(C)n2)nnn1C [Example 288, (1S,3S)-3-((2-methyl-6-(1-methyl-5-((((methyl-d3)(propyl)carbamoyl)oxy)methyl)-1H-1,2,3-triazol-4-yl)pyridin-3-yl)oxy)cyclohexane-1-carboxylic acid]
26 | 40 | CN(CC1CC1)C(=O)OCc1c(-c2ccc(O[C@H]3CCC[C@H](C(=O)O)C3)c(C#N)n2)nnn1C [Example 289, (1S,3S)-3-((2-cyano-6-(5-((((cyclopropylmethyl)(methyl)carbamoyl)oxy)methyl)-1-methyl-1H-1,2,3-triazol-4-yl)pyridin-3-yl)oxy)cyclohexane-1-carboxylic acid]
